{"source": "the NIST ThermoML archive (doi:10.1021/je700713q)", "conditions": "Crystal; visual observation", "note": "Numbers after ± are expanded uncertainties."}
{"smiles": "CC1=CC(=O)[N-]S(=O)(=O)O1.[K+]", "note": "[acesulfame potassium]", "values": [{"measurement": "Normal melting temperature", "result": "229.00 ± 1", "unit": "°C"}]}
